Where “and” joins values, the source holds several entries; their conditions need not be identical. Equal values may be shown once.
What was measured:
[1] = tested on: fibers presumed to be nociceptors; parameters: species or system Swiss Webster mice
TRPV1 receptor [2] = molecular target: T1, TRPV1 receptor (Mus musculus, UniProt Q704Y3); parameters: Segments of distal jejunum (˜2.5 cm) with attached mesenteric tissue were removed from freshly killed animals; from tissue; host or cells: mouse distal jejunum with attached mesenteric nerve bundle (ex vivo); species or system Swiss Webster mice
TRPV1 receptor [3] = molecular target: T1, TRPV1 receptor; assay: Capsaicin-induced Ca2+ rise in DRG neuronal primary cultures (Fluo-4 Ca2+ imaging); format: cell-based; parameters: we used Ca^2+ imaging of DRG neuronal primary culture for these experiments; endogenous in cells; host or cells: primary dorsal root ganglion neurons (thoracolumbar levels)
Method: The spinal column was removed from the body, transferred to a beaker containing ice-cold Krebs, and bisected longitudinally. DRG were exposed and collected from the thoracolumbar levels. Whole DRG were washed twice with sterile Leibovitz's L-15 medium (GIBCO, Gaithersburg, Md.), and incubated for 40 min in collagenase type 1 at 1 mg/ml (Sigma-Aldrich; Oakville, ON, Canada) and 0.5 ml trypsin (0.25%, GIBCO) in 20 ml L-15 at 37° C. After further addition of 5 ml L-15 containing 10% fetal bovine serum (FBS, GIBCO), the ganglia were centrifuged for 5 min at 1,000 rpm, then washed twice with growth medium (L-15, containing 10% FBS, 1% Penicillin/Streptomycin/Glutamine, 1% HEPES and 1% Na Pyruvate). […]
DRG neurons were placed within a plexiglass recording dish and loaded with the Ca^2+ indicator Fluo-4-AM (8 μM) diluted in Krebs with 0.1% pluronic acid (in DMSO) at 37° C. for 60 min. […] Fluorescence intensity in individual neurons was recorded by Simple PCI 6 software (Compix Inc, Imaging systems, Sewickley, Pa.). […] Images, recorded at 0.9 frame/s, were stored on a local hard drive. Image files were analyzed off-line using Image J software (NIH, USA, http://imagej.nih.gov/ij). The increase in Fluo-4 Ca^2+ when applying capsaicin was measured as the ratio (F/F0) fluorescence intensity after capsaicin (F) divided by the intensity before capsaicin (F0). […]

T1 sequence (Q704Y3 whole entry): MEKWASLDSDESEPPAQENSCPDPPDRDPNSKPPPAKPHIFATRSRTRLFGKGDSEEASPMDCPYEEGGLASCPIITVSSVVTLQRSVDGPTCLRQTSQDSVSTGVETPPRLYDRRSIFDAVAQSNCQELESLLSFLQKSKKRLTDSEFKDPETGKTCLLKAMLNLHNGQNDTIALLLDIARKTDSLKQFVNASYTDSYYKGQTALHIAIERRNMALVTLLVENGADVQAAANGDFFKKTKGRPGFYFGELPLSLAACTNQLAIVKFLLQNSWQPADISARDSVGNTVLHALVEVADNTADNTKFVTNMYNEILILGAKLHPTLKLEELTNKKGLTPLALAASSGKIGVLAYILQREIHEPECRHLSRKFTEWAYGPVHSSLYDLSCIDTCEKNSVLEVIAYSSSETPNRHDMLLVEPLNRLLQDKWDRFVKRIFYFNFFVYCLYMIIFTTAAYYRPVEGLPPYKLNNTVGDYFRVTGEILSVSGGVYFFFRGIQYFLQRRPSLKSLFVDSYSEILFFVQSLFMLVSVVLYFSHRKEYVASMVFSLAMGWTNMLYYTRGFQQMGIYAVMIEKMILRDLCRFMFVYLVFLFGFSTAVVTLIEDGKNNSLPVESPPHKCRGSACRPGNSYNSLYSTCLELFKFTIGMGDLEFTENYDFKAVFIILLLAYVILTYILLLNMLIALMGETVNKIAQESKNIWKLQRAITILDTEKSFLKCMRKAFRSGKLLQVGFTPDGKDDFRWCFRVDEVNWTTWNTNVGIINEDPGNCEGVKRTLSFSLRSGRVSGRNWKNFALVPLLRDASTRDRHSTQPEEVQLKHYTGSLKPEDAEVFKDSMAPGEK

SMILES	single-unit response to distension [1] [Hz]	capsaicin-evoked excitation with intramural synaptic blockage (TRPV1 receptor [2]; 1 μM capsaicin in presence of 500 nM each ω-Cg-GVIA and ω-Cg-MVIIC, n=12, P=0.947) [%]	capsaicin-evoked excitation (firing frequency increase) (TRPV1 receptor [2]; 1 μM capsaicin serosal, alone (control group), n=17)	maximal response (Top) obtained with capsaicin (TRPV1 receptor [2]; capsaicin alone, increase in firing frequency above baseline) [%]	onset latency of capsaicin-induced firing rate increase (TRPV1 receptor [2]; capsaicin applied to serosal compartment) [s]	Emax (TRPV1 receptor [2]; read-out: maximal response (Top) obtained with capsaicin, capsaicin alone, increase in firing frequency above baseline) [%]	EC50 (TRPV1 receptor [2]; serosal capsaicin 100 nM-100 μM, vagotomized mice, three-parameter logistic fit, read-out: EC50 for capsaicin alone (increase in firing frequency)) [nM]	fluorescence rise ratio F/F0 evoked by capsaicin (TRPV1 receptor [3]; 1 μM capsaicin alone (control group, N=14))	time to increase in intracellular Ca2+ after puffing capsaicin (TRPV1 receptor [3]; 1 μM capsaicin onto DRG neurons) [s]
COc1cc(CNC(=O)CCCCCC(C)C)c(I)cc1O [6-Iodonordihydrocapsaicin]	2.23±0.50	–	–	–	–	–	–	–	–
COc1cc(CNC(=O)CCCC/C=C/C(C)C)ccc1O [capsaicin]	–	219.1±72.6	187.5±42.9% and 187.5±43%	238±27	~60	238 ± 27.5	200	2.36±0.31	~30
